Several values for one entry are separate records, joined by “and”; a condition that tells them apart may be missing. Identical values can stand only once.
System: BDF1 mice, Adenocarcinoma 755 s.c., tumor weight T/C
Experiment: NCI In Vivo Anticancer Drug Screen. Data for tumor model Adenocarcinoma 755 (subcutaneous) in B6D2F1 (BDF1) mice
Conditions: endpoint: mean tumor weight, higher = larger tumour
Summary of the method: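 Tumor-bearing mice receive test compound while controls get vehicle alone. Antitumor effect is scored from survival or tumor dimensions as a T/C quotient.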

[1] = dose: 75.0 mg/kg/injection, schedule: Q01DX011 (ip), vehicle: saline
[2] = dose: 50.0 mg/kg/injection, schedule: Q01DX011 (ip), vehicle: saline
[3] = dose: 100.0 mg/kg/injection, schedule: Q01DX011 (ip), vehicle: saline
[4] = dose: 200.0 mg/kg/injection, schedule: Q01DX011 (ip), vehicle: saline

O=c1[nH]cnc2c1ncn2C1CCCC1
T/C (dose: 18.1 mg/kg/injection, schedule: Q01DX011 (ip), vehicle: carboxymethylcellulose (CMC)): 81 % of control
T/C (dose: 18.12 mg/kg/injection, schedule: Q01DX011 (ip), vehicle: carboxymethylcellulose (CMC)): 124 % of control
T/C (dose: 36.2 mg/kg/injection, schedule: Q01DX011 (ip), vehicle: carboxymethylcellulose (CMC)): 78 % of control
T/C (dose: 36.25 mg/kg/injection, schedule: Q01DX011 (ip), vehicle: carboxymethylcellulose (CMC)): 90 % of control
T/C (dose: 56.0 mg/kg/injection, schedule: Q01DX001 (ip), vehicle: carboxymethylcellulose (CMC)): 70 % of control
T/C (dose: 72.5 mg/kg/injection, schedule: Q01DX011 (ip), vehicle: carboxymethylcellulose (CMC)): 100 % of control and 87 % of control
T/C (dose: 112.0 mg/kg/injection, schedule: Q01DX001 (ip), vehicle: carboxymethylcellulose (CMC)): 70 % of control
T/C (dose: 145.0 mg/kg/injection, schedule: Q01DX011 (ip), vehicle: carboxymethylcellulose (CMC)): 75 % of control and 85 % of control
T/C (dose: 225.0 mg/kg/injection, schedule: Q01DX001 (ip), vehicle: carboxymethylcellulose (CMC)): 37 % of control

Nc1nc(=S)cc(Nc2cccc(Cl)c2)[nH]1
T/C (dose: 15.0 mg/kg/injection, schedule: Q01DX011 (ip), vehicle: methylcellulose (MC)): 91 % of control
T/C (dose: 62.0 mg/kg/injection, schedule: Q01DX011 (ip), vehicle: methylcellulose (MC)): 87 % of control
T/C (dose: 125.0 mg/kg/injection, schedule: Q01DX011 (ip), vehicle: methylcellulose (MC)): 51 % of control

CC/C(=C(\CC)c1ccc(OC)cc1)c1ccc(O)cc1
T/C (dose: 15.0 mg/kg/injection, schedule: Q01DX011 (sc), vehicle: steriod suspending solution): 68 % of control
T/C (dose: 30.0 mg/kg/injection, schedule: Q01DX011 (sc), vehicle: steriod suspending solution): 69 % of control
T/C (dose: 60.0 mg/kg/injection, schedule: Q01DX011 (sc), vehicle: steriod suspending solution): 40 % of control
T/C (dose: 120.0 mg/kg/injection, schedule: Q01DX011 (sc), vehicle: other): 37 % of control and 42 % of control
T/C (dose: 120.0 mg/kg/injection, schedule: Q01DX011 (sc), vehicle: steriod suspending solution): 26 % of control

O=C(Nc1ccc(C2=NCCCN2)cc1)c1ccc(C(=O)Nc2ccc(C3=NCCCN3)cc2)cc1
T/C (dose: 0.4 mg/kg/injection, schedule: Q01DX011 (ip), vehicle: water): 103 % of control
T/C (dose: 0.8 mg/kg/injection, schedule: Q01DX011 (ip), vehicle: water): 117 % of control
T/C (dose: 1.6 mg/kg/injection, schedule: Q01DX011 (ip), vehicle: water): 94 % of control
T/C (dose: 3.2 mg/kg/injection, schedule: Q01DX011 (ip), vehicle: water): 97 % of control

C=CCn1cnc2c(=S)nc[nH]c21
T/C (dose: 0.37 mg/kg/injection, schedule: Q01DX011 (ip), vehicle: saline): 49 % of control
T/C (dose: 0.5 mg/kg/injection, schedule: Q01DX011 (ip), vehicle: saline): 82 % of control
T/C (dose: 0.75 mg/kg/injection, schedule: Q01DX011 (ip), vehicle: saline): 72 % of control
T/C (dose: 1.0 mg/kg/injection, schedule: Q01DX011 (ip), vehicle: saline): 48 % of control
T/C (dose: 2.0 mg/kg/injection, schedule: Q01DX011 (ip), vehicle: alkali diluted with saline): 7 % of control
T/C (dose: 2.25 mg/kg/injection, schedule: Q01DX011 (ip), vehicle: alkali diluted with saline): 3 % of control
T/C (dose: 2.75 mg/kg/injection, schedule: Q01DX011 (ip), vehicle: alkali diluted with saline): 5 % of control
T/C (dose: 3.0 mg/kg/injection, schedule: Q01DX011 (ip), vehicle: alkali diluted with saline): 9 % of control
T/C (dose: 6.0 mg/kg/injection, schedule: Q01DX011 (ip), vehicle: alkali diluted with saline): 1 % of control
T/C (dose: 12.5 mg/kg/injection, schedule: Q01DX011 (ip), vehicle: alkali diluted with saline): 2 % of control

C[C@]1(O)CC[C@H]2[C@@H]3CC[C@@H]4CC(=O)CC[C@]4(C)[C@@]3(F)C(=O)C[C@@]21C
T/C (dose: 200.0 mg/kg/injection, schedule: Q01DX011 (sc), vehicle: steriod suspending solution): 72 % of control
T/C (dose: 400.0 mg/kg/injection, schedule: Q01DX011 (sc), vehicle: steriod suspending solution): 117 % of control

O=C(O)C1CCCN1c1ncnc2nc[nH]c12 (configuration not stated)
T/C (dose: 25.0 mg/kg/injection, schedule: Q01DX011 (ip), vehicle: saline): 115 % of control
T/C [1]: 104 % of control

CCN(CC)Cc1nc2c(c(=O)n(C)c(=O)n2C)n1C
T/C (dose: 30.0 mg/kg/injection, schedule: Q01DX011 (ip), vehicle: methylcellulose (MC)): 93 % of control
T/C (dose: 60.0 mg/kg/injection, schedule: Q01DX011 (ip), vehicle: methylcellulose (MC)): 54 % of control
T/C (dose: 120.0 mg/kg/injection, schedule: Q01DX011 (ip), vehicle: methylcellulose (MC)): 40 % of control

CC1CN1P(=S)(N1CCCC1)N1CC1C (configuration not stated)
T/C (dose: 14.0 mg/kg/injection, schedule: Q01DX011 (ip), vehicle: carboxymethylcellulose (CMC)): 82 % of control
T/C (dose: 14.0 mg/kg/injection, schedule: Q01DX011 (ip), vehicle: saline): 63 % of control
T/C (dose: 28.0 mg/kg/injection, schedule: Q01DX011 (ip), vehicle: carboxymethylcellulose (CMC)): 58 % of control
T/C (dose: 28.0 mg/kg/injection, schedule: Q01DX011 (ip), vehicle: saline): 43 % of control
T/C (dose: 57.0 mg/kg/injection, schedule: Q01DX011 (ip), vehicle: carboxymethylcellulose (CMC)): 15 % of control
T/C (dose: 57.0 mg/kg/injection, schedule: Q01DX011 (ip), vehicle: saline): 21 % of control

CNc1ncnc2c1ncn2C1CCCO1 (configuration not stated)
T/C [2]: 119 % of control
T/C [3]: 86 % of control
T/C [4]: 51 % of control

CSc1nc(N)cc(=O)n1C
T/C [2]: 100 % of control
T/C [3]: 63 % of control
T/C [4]: 98 % of control

NC(=S)N/N=C/c1cccnc1
T/C (dose: 1:1000.0 dilution, schedule: Q01DX006 (ip), vehicle: water): 124 % of control
T/C (dose: 1:2000.0 dilution, schedule: Q01DX006 (ip), vehicle: water): 110 % of control

CCCCS(=O)(=O)OCCCCOS(=O)(=O)CCCC
T/C (dose: 45.0 mg/kg/injection, schedule: Q01DX011 (ip), vehicle: carboxymethylcellulose (CMC)): 108 % of control
T/C (dose: 90.0 mg/kg/injection, schedule: Q01DX011 (ip), vehicle: carboxymethylcellulose (CMC)): 51 % of control
T/C (dose: 180.0 mg/kg/injection, schedule: Q01DX011 (ip), vehicle: carboxymethylcellulose (CMC)): 41 % of control
T/C (dose: 360.0 mg/kg/injection, schedule: Q01DX011 (ip), vehicle: carboxymethylcellulose (CMC)): 16 % of control

CC1CN1P1(N2CC2C)=NP(N2CC2C)(N2CC2C)=NP(N2CC2C)(N2CC2C)=N1 (configuration not stated)
T/C (dose: 3.0 mg/kg/injection, schedule: Q01DX011 (ip), vehicle: saline): 81 % of control
T/C (dose: 5.0 mg/kg/injection, schedule: Q01DX011 (ip), vehicle: saline): 53 % of control
T/C (dose: 9.0 mg/kg/injection, schedule: Q01DX011 (ip), vehicle: saline): 52 % of control
T/C (dose: 18.0 mg/kg/injection, schedule: Q01DX011 (ip), vehicle: saline): 20 % of control and 35 % of control
T/C (dose: 36.0 mg/kg/injection, schedule: Q01DX011 (ip), vehicle: saline): 9 % of control
T/C [1]: 24 % of control

C[C@H]1C[C@H]2[C@@H]3CC[C@](O)(C(=O)CF)[C@@]3(C)C[C@H](O)[C@]2(F)[C@@]2(C)C=CC(=O)C=C12
T/C (dose: 0.62 mg/kg/injection, schedule: Q01DX011 (sc), vehicle: steriod suspending solution): 89 % of control
T/C (dose: 1.0 mg/kg/injection, schedule: Q01DX011 (sc), vehicle: steriod suspending solution): 76 % of control
T/C (dose: 1.25 mg/kg/injection, schedule: Q01DX011 (sc), vehicle: steriod suspending solution): 69 % of control
T/C (dose: 10.0 mg/kg/injection, schedule: Q01DX011 (sc), vehicle: steriod suspending solution): 16 % of control and 29 % of control and 33 % of control
T/C (dose: 20.0 mg/kg/injection, schedule: Q01DX011 (sc), vehicle: steriod suspending solution): 18 % of control and 27 % of control
T/C (dose: 40.0 mg/kg/injection, schedule: Q01DX011 (sc), vehicle: steriod suspending solution): 11 % of control and 14 % of control
T/C (dose: 80.0 mg/kg/injection, schedule: Q01DX011 (sc), vehicle: steriod suspending solution): 14 % of control
T/C (dose: 160.0 mg/kg/injection, schedule: Q01DX011 (sc), vehicle: steriod suspending solution): 4 % of control

Cn1c(N)nc2c(ncn2C2OC(CO)C(O)C2O)c1=O (configuration not stated)
T/C (dose: 30.0 mg/kg/injection, schedule: Q01DX011 (ip), vehicle: saline): 101 % of control
T/C (dose: 60.0 mg/kg/injection, schedule: Q01DX011 (ip), vehicle: saline): 94 % of control
T/C (dose: 120.0 mg/kg/injection, schedule: Q01DX011 (ip), vehicle: saline): 116 % of control

Cc1cc2c(cc1C)NC(C)CC(=O)N2 (configuration not stated)
T/C (dose: 50.0 mg/kg/injection, schedule: Q01DX011 (ip), vehicle: carboxymethylcellulose (CMC)): 89 % of control
T/C (dose: 50.0 mg/kg/injection, schedule: Q01DX011 (ip), vehicle: other): 80 % of control
T/C (dose: 100.0 mg/kg/injection, schedule: Q01DX011 (ip), vehicle: other): 48 % of control
T/C (dose: 200.0 mg/kg/injection, schedule: Q01DX011 (ip), vehicle: carboxymethylcellulose (CMC)): 84 % of control

From PubChem BioAssay AID180 (DTP/NCI, 2004)
